Source: PubChem BioAssay (NCI)
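How tested: cells in 96-well plates exposed to compound for 48 hours at five concentrations. Abbreviation: GI50, concentration required for 50% inhibition of growth. TGI denotes the concentration required for complete inhibition of growth.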

Assays:
Assay in all cases: DTP human tumour cell line panel, 48 h
HCC-2998 colon = test system: HCC-2998 colon
UO-31 renal = test system: UO-31 renal
SN12C renal = test system: SN12C renal
OVCAR-4 ovarian = test system: OVCAR-4 ovarian
SK-MEL-5 melanoma = test system: SK-MEL-5 melanoma
SF-539 CNS = test system: SF-539 CNS
SK-MEL-2 melanoma = test system: SK-MEL-2 melanoma
K-562 leukemia = test system: K-562 leukemia
A498 renal = test system: A498 renal
T-47D breast = test system: T-47D breast

## N=C(N)n1[nH]c2c(c1=O)CCC2
HCC-2998 colon
  TGI: > 100 µM
UO-31 renal
  TGI: > 100 µM
SN12C renal
  TGI: > 100 µM
OVCAR-4 ovarian
  TGI: > 100 µM
SK-MEL-5 melanoma
  TGI: > 100 µM
SF-539 CNS
  TGI: > 100 µM
SK-MEL-2 melanoma
  TGI: > 100 µM
K-562 leukemia
  TGI: > 100 µM

## NCCCn1c2c(c3ccc([N+](=O)[O-])cc3c1=O)C(=O)c1cc3c(cc1-2)OCO3
UO-31 renal
  GI50: < 0.01 µM
  TGI: 0.2 µM
SN12C renal
  GI50: < 0.01 µM
  TGI: 0.385 µM
SK-MEL-5 melanoma
  GI50: 0.0273 µM
  TGI: 0.247 µM
K-562 leukemia
  GI50: 0.0581 µM

## c1ccc(C(CCN2CCCC2)c2ccccn2)cc1 (stereo not drawn)
HCC-2998 colon
  TGI: > 100 µM
UO-31 renal
  TGI: > 100 µM
SN12C renal
  TGI: > 100 µM
OVCAR-4 ovarian
  TGI: > 100 µM
SK-MEL-5 melanoma
  TGI: > 100 µM
SK-MEL-2 melanoma
  TGI: > 100 µM
A498 renal
  TGI: > 100 µM
K-562 leukemia
  TGI: > 100 µM
T-47D breast
  TGI: > 100 µM

## COc1ccc(N2CCN(c3ccc4c(c3)NCC(=O)N4)CC2)cc1
HCC-2998 colon
  TGI: > 100 µM
UO-31 renal
  TGI: 70.4 µM
SN12C renal
  TGI: > 100 µM
OVCAR-4 ovarian
  TGI: 77.3 µM
SK-MEL-5 melanoma
  TGI: > 100 µM
SF-539 CNS
  TGI: 54.1 µM
SK-MEL-2 melanoma
  TGI: 69.6 µM
K-562 leukemia
  TGI: > 100 µM
T-47D breast
  TGI: 33.4 µM

## COC(=O)C1(NC(=O)C(N)CC(=O)O)C(C)C1C (stereo not drawn)
UO-31 renal
  TGI: > 100 µM
SN12C renal
  TGI: > 100 µM
OVCAR-4 ovarian
  TGI: > 100 µM
SK-MEL-5 melanoma
  TGI: > 100 µM
SF-539 CNS
  TGI: > 100 µM
SK-MEL-2 melanoma
  TGI: > 100 µM
A498 renal
  TGI: > 100 µM
K-562 leukemia
  TGI: > 100 µM
T-47D breast
  TGI: > 100 µM

## O=c1c2c([nH]c3cc4c(cc13)OCO4)-c1ccccc1CCC2
HCC-2998 colon
  TGI: > 50 µM
UO-31 renal
  TGI: > 50 µM
SN12C renal
  TGI: > 50 µM
OVCAR-4 ovarian
  TGI: > 50 µM
SK-MEL-5 melanoma
  TGI: > 50 µM
SF-539 CNS
  TGI: > 50 µM
A498 renal
  TGI: > 50 µM
K-562 leukemia
  TGI: > 50 µM

## C=C(C)CC1=C(C(=S)NCCO[Si](C)(C)C(C)(C)C)C(OCC)(OCC)C1=O
UO-31 renal
  TGI: 35.9 µM
SN12C renal
  TGI: 42.2 µM
OVCAR-4 ovarian
  TGI: 34.3 µM
SK-MEL-5 melanoma
  TGI: 51 µM
SF-539 CNS
  TGI: 37.8 µM
SK-MEL-2 melanoma
  TGI: 34.4 µM
A498 renal
  TGI: 40.5 µM
T-47D breast
  TGI: 35.4 µM

## C=C1c2nc3ccccc3n2C=C(c2ccc(Cl)cc2)N1c1ccccc1
HCC-2998 colon
  TGI: 26 µM
UO-31 renal
  TGI: 32.9 µM
SN12C renal
  TGI: > 100 µM
OVCAR-4 ovarian
  TGI: 29.9 µM
SK-MEL-5 melanoma
  TGI: > 100 µM
SF-539 CNS
  TGI: 25.9 µM
SK-MEL-2 melanoma
  TGI: > 100 µM
A498 renal
  TGI: > 100 µM
K-562 leukemia
  TGI: > 100 µM

## NCCCCNCCCN
HCC-2998 colon
  TGI: > 100 µM
UO-31 renal
  TGI: > 100 µM
OVCAR-4 ovarian
  TGI: 37.6 µM
SK-MEL-5 melanoma
  TGI: > 100 µM
SF-539 CNS
  TGI: > 100 µM
SK-MEL-2 melanoma
  TGI: > 100 µM
A498 renal
  TGI: > 100 µM
K-562 leukemia
  TGI: > 100 µM
T-47D breast
  TGI: > 100 µM

## CCOC(=O)/C=C(/C(=O)OCC)n1c(=O)c(C)cn(C2CC(N=[N+]=[N-])C(CO)O2)c1=O (stereo not drawn)
HCC-2998 colon
  TGI: 31.4 µM
UO-31 renal
  TGI: > 100 µM
SN12C renal
  TGI: > 100 µM
OVCAR-4 ovarian
  TGI: > 100 µM
SF-539 CNS
  TGI: 47.9 µM
SK-MEL-2 melanoma
  TGI: 72 µM
A498 renal
  TGI: > 100 µM
K-562 leukemia
  TGI: > 100 µM
T-47D breast
  TGI: > 100 µM

## O=C(/C=C/c1cccs1)c1ccsc1
HCC-2998 colon
  TGI: 34.9 µM
UO-31 renal
  TGI: 32.4 µM
SN12C renal
  TGI: 52.6 µM
OVCAR-4 ovarian
  TGI: > 100 µM
SK-MEL-5 melanoma
  TGI: 36 µM
SK-MEL-2 melanoma
  TGI: > 100 µM
A498 renal
  TGI: > 100 µM
K-562 leukemia
  TGI: 89.8 µM
T-47D breast
  TGI: 72 µM

## CCC(=N\NC(N)=S)/C(C)=N/O
HCC-2998 colon
  TGI: > 100 µM
UO-31 renal
  TGI: > 100 µM
SN12C renal
  TGI: > 100 µM
OVCAR-4 ovarian
  TGI: > 100 µM
SK-MEL-5 melanoma
  TGI: > 100 µM
SF-539 CNS
  TGI: > 100 µM
SK-MEL-2 melanoma
  TGI: > 100 µM
K-562 leukemia
  TGI: > 100 µM
T-47D breast
  TGI: > 100 µM

## COC(=O)C[C@H](COCc1ccccc1)NC(=O)C[C@H](COCc1ccccc1)NC(=O)C[C@H](COCc1ccccc1)NC(=O)OC(C)(C)C
UO-31 renal
  TGI: > 100 µM
SN12C renal
  TGI: > 100 µM
OVCAR-4 ovarian
  TGI: 17.4 µM
SK-MEL-5 melanoma
  TGI: > 100 µM
SF-539 CNS
  TGI: > 100 µM
SK-MEL-2 melanoma
  TGI: > 100 µM
A498 renal
  TGI: 67.1 µM
K-562 leukemia
  TGI: > 100 µM
T-47D breast
  TGI: > 100 µM

## Sc1nnc(-c2ccccc2Nc2ccccc2-c2nnc(S)n2-c2ccccc2)n1-c1ccccc1
HCC-2998 colon
  TGI: > 100 µM
UO-31 renal
  TGI: > 100 µM
SN12C renal
  TGI: 72.9 µM
OVCAR-4 ovarian
  TGI: > 100 µM
SK-MEL-5 melanoma
  TGI: 80.9 µM
SF-539 CNS
  TGI: > 100 µM
SK-MEL-2 melanoma
  TGI: 84.2 µM
K-562 leukemia
  TGI: > 100 µM
T-47D breast
  TGI: 88.2 µM

## CN(C)CCCNC(=O)c1cc(NC(=O)c2cc(NC(=O)c3cc(NC(=O)CCCn4ccc(CO)c4CO)cn3C)cn2C)cn1C
HCC-2998 colon
  TGI: > 100 µM
UO-31 renal
  TGI: > 100 µM
SN12C renal
  TGI: > 100 µM
OVCAR-4 ovarian
  TGI: > 100 µM
SK-MEL-5 melanoma
  TGI: 12.7 µM
SF-539 CNS
  TGI: 33.6 µM
SK-MEL-2 melanoma
  TGI: 77 µM
K-562 leukemia
  TGI: > 100 µM
T-47D breast
  TGI: > 100 µM

## CCN(CC)C(=O)c1c(N2CCOCC2)cc(N(CC)CC)oc1=O
HCC-2998 colon
  TGI: > 100 µM
UO-31 renal
  TGI: > 100 µM
SN12C renal
  TGI: > 100 µM
OVCAR-4 ovarian
  TGI: > 100 µM
SF-539 CNS
  TGI: > 100 µM
SK-MEL-2 melanoma
  TGI: > 100 µM
A498 renal
  TGI: > 100 µM
K-562 leukemia
  TGI: > 100 µM

## Oc1[nH]c2ccccc2c1N=NC(=S)N1CCCCCC1
HCC-2998 colon
  TGI: 7.1 µM
UO-31 renal
  TGI: 3.08 µM
SN12C renal
  TGI: 10.6 µM
OVCAR-4 ovarian
  TGI: 3.91 µM
SK-MEL-5 melanoma
  TGI: 2.04 µM
SF-539 CNS
  TGI: 1.59 µM
SK-MEL-2 melanoma
  TGI: 5.72 µM
A498 renal
  TGI: 2.3 µM
T-47D breast
  TGI: 17.6 µM

## O=C(NCCO)c1c(O)c2ccccc2[nH]c1=O
HCC-2998 colon
  TGI: > 100 µM
UO-31 renal
  TGI: > 100 µM
SN12C renal
  TGI: > 100 µM
OVCAR-4 ovarian
  TGI: > 100 µM
SK-MEL-5 melanoma
  TGI: > 100 µM
SF-539 CNS
  TGI: > 100 µM
A498 renal
  TGI: > 100 µM
K-562 leukemia
  TGI: > 100 µM

## Cc1ccc([N+](=O)[O-])cc1S(=O)(=O)Nc1ccc(C2=NN(c3ccc([N+](=O)[O-])cc3[N+](=O)[O-])C(c3ccccc3O)C2)cc1 (stereo not drawn)
UO-31 renal
  TGI: > 100 µM
SN12C renal
  TGI: 54 µM
OVCAR-4 ovarian
  TGI: > 100 µM
SK-MEL-5 melanoma
  TGI: 61.1 µM
SF-539 CNS
  TGI: > 100 µM
SK-MEL-2 melanoma
  TGI: 59.4 µM
K-562 leukemia
  TGI: > 100 µM
T-47D breast
  TGI: > 100 µM

## CC(=O)Oc1ccc(OC(Oc2ccccc2)c2ccccc2)cc1 (stereo not drawn)
HCC-2998 colon
  TGI: 39.7 µM
UO-31 renal
  TGI: 88.9 µM
SN12C renal
  TGI: 29.2 µM
OVCAR-4 ovarian
  TGI: > 100 µM
SF-539 CNS
  TGI: 49.8 µM
A498 renal
  TGI: 43.5 µM
K-562 leukemia
  TGI: > 100 µM
T-47D breast
  TGI: > 100 µM

## C=C1C(=O)[C@]23[C@H](O)[C@H]1CC[C@H]2[C@@]12CO[C@@]3(O)C[C@@H]1C(C)(C)CC[C@@H]2O
HCC-2998 colon
  TGI: 23.4 µM
UO-31 renal
  TGI: > 25 µM
SN12C renal
  TGI: > 25 µM
OVCAR-4 ovarian
  TGI: > 25 µM
SK-MEL-5 melanoma
  TGI: > 25 µM
SF-539 CNS
  TGI: 16.7 µM
A498 renal
  TGI: 20.1 µM
K-562 leukemia
  TGI: > 25 µM

## C=CCC1NCCC2=C1C(S(=O)(=O)c1ccc(C)cc1)c1ccccc12 (stereo not drawn)
HCC-2998 colon
  TGI: 3.6 µM
UO-31 renal
  TGI: 20.5 µM
SN12C renal
  TGI: 28.5 µM
OVCAR-4 ovarian
  TGI: 25.7 µM
SK-MEL-5 melanoma
  TGI: 27.6 µM
SK-MEL-2 melanoma
  TGI: 27.1 µM
A498 renal
  TGI: 33.2 µM
K-562 leukemia
  TGI: 63.4 µM
T-47D breast
  TGI: 26.1 µM

## ClCc1c(-c2ccccc2)nn(-c2ccccc2)c1CCl
HCC-2998 colon
  TGI: 26.8 µM
UO-31 renal
  TGI: 45 µM
SN12C renal
  TGI: 42.3 µM
OVCAR-4 ovarian
  TGI: 3.83 µM
SK-MEL-5 melanoma
  TGI: 25.2 µM
SF-539 CNS
  TGI: 33.1 µM
SK-MEL-2 melanoma
  TGI: 26.5 µM
T-47D breast
  TGI: 5.96 µM

## CC1NOC(NS(=O)(=O)c2ccc(N=Nc3c(O)c(C(=O)O)cc4ccccc34)cc2)C1C (stereo not drawn)
HCC-2998 colon
  TGI: > 100 µM
UO-31 renal
  TGI: > 100 µM
OVCAR-4 ovarian
  TGI: > 100 µM
SK-MEL-5 melanoma
  TGI: > 100 µM
SF-539 CNS
  TGI: > 100 µM
SK-MEL-2 melanoma
  TGI: > 100 µM
K-562 leukemia
  TGI: > 100 µM
